Assay results reported in patent publication US7193079B1 (Board of Trustees of Michigan State University, priority 2003, dated 2007).

Legend:
[1] = tested on: IL-2 production; assay: Inhibition of IL-2 production measured by competitive EIA in PMA/PHA-activated Jurkat T cells; format: cell-based, human; details: for IC50: PMA/PHA-activated Jurkat T cells, EIA, means of two experiments, standard deviation in parentheses
Description: (§1) Exposure of human Jurkat leukemia T-cells to phorbol myristate acetate (PMA/PHA) and THP-1 cells to lipopolysaccharide (LPS), activates NF-κB mediated gene transcription of several pro-inflammatory cytokines, including IL-2, IL-6, IL-8 and TNF-α (Baldwin, Ann. Rev. Immunol. 14: 649–683 (1996); Grilli et al., Int. Rev. Cytol. 143: 1–62 (1993)). […] The inhibition of IL-2 was evaluated in Jurkat cells after PMA/PHA activation (Mahon and O'Neill, J. Biol. Chem. 270: 28557–28564 (1995); Lindgren et al., Molec. Immunol. 38V 267–277 (2001)). The inhibition of TNF-α was evaluated in THP-1 cells after LPS activation (Aikawa et al., Inflamm. Res. 51: 188–194 (2002)). […] After 24 hours, the cell free supernatant fractions were collected and subjected to EIA for the quantification of total IL-2 production.
To each well of a flat bottomed 96 well culture plate 0.2 mL 1×10^6 Jurkat E6-1 cells/mL were added. Each sample was then treated in duplicate with the compounds in DMSO at either 10 μM, 1 μM, 0.1 μM or 10 ηM and allowed to incubate for thirty minutes at 37° C., 5% CO2. Cell free supernatant fractions were collected from stimulated cultures incubated for 24 hr at 37° C., 5% CO2. Cultures were stimulated with phytohemagglutinin (PHA, Sigma-Aldrich, St. Louis, Mo.) at 1 μg/mL; and phorbol myristate acetate (PMA, Sigma-Aldrich, St. Louis, Mo.) at 50 ng/mL. The concentration of IL-2 in each sample was then measured using a competitive enzyme immunoassay (Neogen Corporation, Lansing, Mich.) according to the manufacturer's protocol. Known IL-2 concentrations were plotted and fit a 4 parameter logistic curve. Unknown concentrations were then extrapolated from the standard curve.

[2] = tested on: TNF-α production; assay: Inhibition of TNF-α production measured by competitive EIA in LPS stimulated THP-1 cells; format: cell-based, human; details: for IC50: EIA, 3 hr incubation, means of two experiments, standard deviation in parentheses
Description: as §1
The assay measured the ability of the compounds to inhibit TNF-α production in LPS stimulated THP-1 cells (Aikawa et al., Inflamm. Res. 51V 188–194 (2002)).
THP-1 cells are grown in RPMI-1640 Media (Gibco-BRL, Rockville, Md.) supplemented with 5% fetal bovine serum, penicillin (614 ηg/mL), streptomycin (10 μg/mL) and HEPES buffer, pH 7.2 at 37° C., 5% CO2. To each well of a flat bottomed 96 well culture plate 0.2 mL 1×10^6 THP-1 cells/mL were added. Each sample was then treated in duplicate with the compounds in DMSO at either 10 μM, 1 μM, 0.1 μM or 10 ηM and allowed to incubate for thirty minutes at 37° C., 5% CO2. Cell free supernatant fractions were collected from stimulated cultures incubated for 3 hr at 37° C., 5% CO2. Cultures were stimulated with LPS (Sigma-Aldrich, St. Louis, Mo.) at 1 μg/mL. The concentration of TNF-α in each sample was then measured using a competitive enzyme immunoassay (Neogen Corporation, Lansing, Mich.) according to the manufacturer's protocol. To make a standard curve, known TNF-α concentrations were plotted and fitted to a 4 parameter logistic curve. Unknown concentrations were then extrapolated from the standard curve.

[3] = tested on: CEM leukemia cells; assay: Inhibition of cell growth in CEM leukemia cells (trypan blue counting); format: cell-based; details: 48 hour, means of two experiments, standard deviation in parentheses
Description: Cells were treated at different concentrations ranging from 10 ηM to 5 μM concentrations over a 48 hour time period.
CEM cells (CCRF-CEM; ATCC No. CCL-119, American Type Culture Collection, Manassas, Va.) were grown in RPMI-1640 Media (Gibco-BRL, Rockville, Md.) supplemented with 10% Fetal Bovine Serum, penicillin (614 r1 g/mL), streptomycin (10 μg/mL) and HEPES buffer, pH 7.2 at 37° C., 5% CO2. DMSO was used as the vector for all drugs and added in the control experiments. Cell cultures were then treated with 10 μM, 1 μM, 0.1 μM or 10 ηM of the drug in duplicate and allowed to incubate at 37° C., 5% CO2. Cells were stained with 4% trypan blue solution in PBS, and counted under the microscope (Thomas Scientific, Fisher Scientific) in duplicate. This was repeated for Oh, 2 h, 6 h, 12 h, 24 h, and 48 h. The data points obtained were then plotted and a point-to-point curve was drawn to determine the effect of the drug on the cells.

[4] = tested on: CDK1; assay: Inhibition of CDK1 (method of Meijer et al.); format: biochemical
From the text: The inhibitory activity of compound 3 was less pronounced.

[5] = molecular target: GSK-3β (Homo sapiens, UniProt P49841); assay: Inhibition of GSK-3β (method of Meijer et al.); format: biochemical
Sequence of GSK-3β (P49841 whole entry, species assumed): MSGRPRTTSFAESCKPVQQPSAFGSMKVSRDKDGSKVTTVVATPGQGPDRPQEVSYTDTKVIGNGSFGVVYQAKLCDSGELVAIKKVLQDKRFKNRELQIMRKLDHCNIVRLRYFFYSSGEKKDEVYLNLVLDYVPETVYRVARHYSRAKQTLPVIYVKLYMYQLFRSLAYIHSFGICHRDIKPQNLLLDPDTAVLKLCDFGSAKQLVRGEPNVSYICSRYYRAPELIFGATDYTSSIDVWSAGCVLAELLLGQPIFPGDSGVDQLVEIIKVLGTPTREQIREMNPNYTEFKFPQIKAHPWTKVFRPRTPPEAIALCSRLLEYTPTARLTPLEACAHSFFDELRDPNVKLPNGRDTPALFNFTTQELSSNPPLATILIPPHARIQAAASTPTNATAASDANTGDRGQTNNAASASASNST

[6] = molecular target: T1, CK1δ (h) (Homo sapiens, UniProt P48730); assay: Upstate Kinase Profiler in vitro kinase assay, CK1δ; format: biochemical; details: 10 μM ATP
T1 construct: purchased Upstate, UK (Kinase Profiler service)
T1 sequence (P48730 whole entry): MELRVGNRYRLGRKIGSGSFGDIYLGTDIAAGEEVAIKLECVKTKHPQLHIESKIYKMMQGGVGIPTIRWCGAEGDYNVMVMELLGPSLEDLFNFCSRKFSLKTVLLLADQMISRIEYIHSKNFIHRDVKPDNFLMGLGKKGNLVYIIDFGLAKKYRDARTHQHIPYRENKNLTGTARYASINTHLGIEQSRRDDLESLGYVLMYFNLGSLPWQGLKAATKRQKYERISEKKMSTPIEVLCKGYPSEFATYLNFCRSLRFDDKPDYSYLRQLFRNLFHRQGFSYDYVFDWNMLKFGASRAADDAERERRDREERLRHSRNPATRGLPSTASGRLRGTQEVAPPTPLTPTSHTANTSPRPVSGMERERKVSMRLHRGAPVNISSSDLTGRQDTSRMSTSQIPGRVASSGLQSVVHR
Description: (§2) The potent inhibitory activity of the indoloazepines against checkpoint kinases Chk1 and Chk2 was determined. In vitro kinase Assay: Compound 2 was tested in vitro against the kinases indicated by Upstate, UK using a Kinase Profiler Assay according to the manufacturer's protocol. Briefly, in a final volume of 25 μl, the kinase was incubated with the desired buffer and the required polypeptide substrate, in presence of 10 mM magnesium acetate and γ-^33P-ATP (10 μM). After incubation for 40 minutes at room temperature, the reaction was stopped by the addition of 3% H3PO4 (5 μl). A 10 μl of the reaction was then spotted on a P30 filtermat and washed 3× in 75 mM H3PO4 and finally in methanol. Samples were then dried and signals counted on a scintillation counter. […] The results are shown in FIGS. 8 and 9 for CHK1 and CHK2.

[7] = molecular target: T2, CK2 (h) (Homo sapiens, UniProt P68400); assay: Upstate Kinase Profiler in vitro kinase assay, CK2; format: biochemical; details: 10 μM ATP
T2 construct: purchased Upstate, UK (Kinase Profiler service)
T2 sequence (P68400 whole entry): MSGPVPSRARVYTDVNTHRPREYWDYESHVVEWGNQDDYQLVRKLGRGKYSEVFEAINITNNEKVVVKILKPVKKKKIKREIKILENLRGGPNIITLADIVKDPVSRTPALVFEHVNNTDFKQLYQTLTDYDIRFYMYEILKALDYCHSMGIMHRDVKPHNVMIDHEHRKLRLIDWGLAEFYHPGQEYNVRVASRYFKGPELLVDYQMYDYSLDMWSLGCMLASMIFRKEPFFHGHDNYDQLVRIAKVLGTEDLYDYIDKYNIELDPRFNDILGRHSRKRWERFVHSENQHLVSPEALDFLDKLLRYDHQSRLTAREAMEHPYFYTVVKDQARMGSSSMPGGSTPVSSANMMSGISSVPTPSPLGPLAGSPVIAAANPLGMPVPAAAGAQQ
T2 sequence (P67870 whole entry partner): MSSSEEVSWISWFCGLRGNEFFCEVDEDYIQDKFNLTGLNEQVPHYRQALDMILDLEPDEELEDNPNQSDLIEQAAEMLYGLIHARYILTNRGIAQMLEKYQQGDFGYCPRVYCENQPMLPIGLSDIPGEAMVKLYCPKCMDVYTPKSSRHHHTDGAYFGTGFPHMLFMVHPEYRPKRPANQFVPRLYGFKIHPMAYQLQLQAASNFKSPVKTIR
Description: as §2

[8] = molecular target: T3, MEK1 (h) (Homo sapiens, UniProt Q02750); assay: Upstate Kinase Profiler in vitro kinase assay, MEK1; format: biochemical; details: 10 μM ATP
T3 construct: purchased Upstate, UK (Kinase Profiler service)
T3 sequence (Q02750 whole entry): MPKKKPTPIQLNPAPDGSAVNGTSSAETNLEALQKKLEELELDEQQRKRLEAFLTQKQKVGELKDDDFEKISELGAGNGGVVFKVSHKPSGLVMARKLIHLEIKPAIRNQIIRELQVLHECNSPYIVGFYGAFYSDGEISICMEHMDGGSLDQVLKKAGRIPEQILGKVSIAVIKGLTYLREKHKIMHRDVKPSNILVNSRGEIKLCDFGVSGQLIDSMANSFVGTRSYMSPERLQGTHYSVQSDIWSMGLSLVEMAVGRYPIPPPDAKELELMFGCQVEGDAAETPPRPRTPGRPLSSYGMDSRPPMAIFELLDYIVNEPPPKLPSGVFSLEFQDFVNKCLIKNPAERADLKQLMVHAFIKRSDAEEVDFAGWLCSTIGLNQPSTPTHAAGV
Description: as §2

[9] = molecular target: T4, PKCα (h) (Homo sapiens, UniProt P17252); assay: Upstate Kinase Profiler in vitro kinase assay, PKCα; format: biochemical; details: 10 μM ATP
T4 construct: purchased Upstate, UK (Kinase Profiler service)
Description: as §2

[10] = molecular target: T5, PKCβII (h) (Homo sapiens, UniProt P05771); assay: Upstate Kinase Profiler in vitro kinase assay, PKCβII; format: biochemical; details: 10 μM ATP
T5 construct: purchased Upstate, UK (Kinase Profiler service)
T5 sequence (P05771 1-673 isoform P05771-2): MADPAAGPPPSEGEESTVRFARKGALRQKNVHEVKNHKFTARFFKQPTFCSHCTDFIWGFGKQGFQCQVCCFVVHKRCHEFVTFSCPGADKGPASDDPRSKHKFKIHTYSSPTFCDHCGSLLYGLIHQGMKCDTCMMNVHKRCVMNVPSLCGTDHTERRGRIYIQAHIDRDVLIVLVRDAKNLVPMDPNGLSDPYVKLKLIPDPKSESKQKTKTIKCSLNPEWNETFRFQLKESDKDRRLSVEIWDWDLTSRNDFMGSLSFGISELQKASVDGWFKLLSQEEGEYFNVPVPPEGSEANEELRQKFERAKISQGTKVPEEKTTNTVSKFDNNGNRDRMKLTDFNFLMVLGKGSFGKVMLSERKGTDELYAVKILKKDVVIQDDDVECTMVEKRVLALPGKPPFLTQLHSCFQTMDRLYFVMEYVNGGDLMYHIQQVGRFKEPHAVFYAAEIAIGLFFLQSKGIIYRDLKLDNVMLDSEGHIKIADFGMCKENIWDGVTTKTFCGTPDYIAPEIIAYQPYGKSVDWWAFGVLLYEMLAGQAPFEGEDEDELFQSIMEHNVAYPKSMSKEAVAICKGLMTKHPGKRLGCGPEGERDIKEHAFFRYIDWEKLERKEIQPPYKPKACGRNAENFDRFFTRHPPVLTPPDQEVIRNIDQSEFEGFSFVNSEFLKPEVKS
Description: as §2

[11] = molecular target: T6, CHK1 (Homo sapiens, UniProt O14757); assay: Upstate Kinase Profiler in vitro kinase assay, CHK1; format: biochemical; details: 10 μM ATP
T6 sequence (O14757 1-476): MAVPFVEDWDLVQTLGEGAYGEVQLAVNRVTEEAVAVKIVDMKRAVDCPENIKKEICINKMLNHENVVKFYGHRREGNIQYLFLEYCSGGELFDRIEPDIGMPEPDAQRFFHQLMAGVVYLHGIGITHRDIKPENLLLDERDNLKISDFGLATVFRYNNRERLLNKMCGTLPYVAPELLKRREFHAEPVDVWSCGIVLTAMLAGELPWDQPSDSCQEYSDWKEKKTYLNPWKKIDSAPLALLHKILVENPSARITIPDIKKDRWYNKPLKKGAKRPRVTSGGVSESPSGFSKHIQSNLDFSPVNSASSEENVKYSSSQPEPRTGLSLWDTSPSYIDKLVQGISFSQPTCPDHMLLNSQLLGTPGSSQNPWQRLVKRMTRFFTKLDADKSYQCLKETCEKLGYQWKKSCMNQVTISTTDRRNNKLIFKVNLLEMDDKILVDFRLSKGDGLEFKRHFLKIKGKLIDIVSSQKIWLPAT
Description: as §2, with “In” for “The potent inhibitory activity of the indoloazepines against checkpoint kinases Chk1 and Chk2 was determined. In”

[12] = molecular target: T7, CHK2 (Homo sapiens, UniProt O96017); assay: Upstate Kinase Profiler in vitro kinase assay, CHK2; format: biochemical; details: 10 μM ATP
T7 construct: purchased Upstate, UK (Kinase Profiler service)
T7 sequence (O96017 whole entry): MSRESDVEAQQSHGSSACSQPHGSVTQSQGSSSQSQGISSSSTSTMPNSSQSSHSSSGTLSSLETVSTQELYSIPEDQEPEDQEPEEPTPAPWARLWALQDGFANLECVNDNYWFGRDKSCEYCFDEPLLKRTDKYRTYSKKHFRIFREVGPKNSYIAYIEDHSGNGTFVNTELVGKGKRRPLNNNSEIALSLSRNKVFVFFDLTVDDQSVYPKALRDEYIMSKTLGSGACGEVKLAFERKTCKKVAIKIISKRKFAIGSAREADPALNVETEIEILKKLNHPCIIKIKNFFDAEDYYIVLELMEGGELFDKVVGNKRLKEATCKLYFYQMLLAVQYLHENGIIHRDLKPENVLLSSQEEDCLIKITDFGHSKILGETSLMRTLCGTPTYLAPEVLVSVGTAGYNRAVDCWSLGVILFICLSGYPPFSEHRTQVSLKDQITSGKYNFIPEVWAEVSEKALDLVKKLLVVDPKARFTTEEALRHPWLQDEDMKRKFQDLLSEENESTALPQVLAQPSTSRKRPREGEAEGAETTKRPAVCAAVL
Description: as §2, with “In” for “The potent inhibitory activity of the indoloazepines against checkpoint kinases Chk1 and Chk2 was determined. In”

[13] = tested on: NF-κB-DNA binding; assay: EMSA for NF-κB-DNA binding in nuclear extracts of PMA/PHA-activated Jurkat cells; format: cell-based, human; details: for Inhibition of DNA-binding (relative to activated control) / Count per mm^2 NF-κB bands: EMSA; for Inhibition of DNA-binding (relative to activated control): PMA-activated Jurkat cells; for Count per mm^2 NF-κB bands: activated control 105.55
Description: Human Jurkat leukemia T-cells (clone E6-1; ATCC No. […] The Jurkat cells (1×10^6 cells/mL) are subsequently treated with various concentrations of the compounds in DMSO for 30 min. at 37° C. and 5% CO2 followed by PMA (50 ng/mL) and PHA ([…]) stimulation for an additional 30 minutes. The cells were harvested by centrifugation, washed in ice cold PBS and the nuclear extracts were prepared as previously described (Dignam et al., Nucl. Acids Res. 11: 1475-1489 (1983)). The protein concentration of the extracts was determined according to the Method of Bradford (1976) with BioRad reagents. Nuclear extracts were incubated for 20 minutes at room temperature with a double stranded Cy3 labeled NF-κB consensus oligonucleotide, [NT] ID NO:1). The binding mixture (25 μL) contained 10 mM HEPES-NaOH pH 7.9, 4 mM Tris-HCL, pH 7.9, 6.0 mM KCl, 1 mM EDTA, 1 mM DTT, 10% glycerol, 0.3 mg/mL bovine serum albumin, and 1 μg of poly (dI:dC). The binding mixtures (10 μg of nuclear extract protein) were incubated for 20 minutes at room temperature with 0.16 pmol of Cy3 labeled oligonucleotide. The mixture was loaded on a 4% polyacrylamide gel prepared in 1× TRIS borate/EDTA buffer and was electrophoresed at 200 V for 20 minutes. After electrophoresis the gel was analyzed using a phosphorimager (BIORAD FX PLUS, Biorad Laboratories, Inc., Hercules, Calif.) for detection of NF-κB-DNA binding.

[14] = molecular target: T6, CHK1; details: natural products, general statement; cited from earlier work

Row | IC50 ([1]; Homo sapiens, Jurkat, 24 h) | IC50 ([1]; 24 hr) | IC50 [2] | IC50 ([2]; Homo sapiens, THP-1, 3 h) | GI50 [3] | IC50 [4] | IC50 [5] | IC50 ([1]; Homo sapiens, 24 hr) | IC50 ([2]; Homo sapiens) | Compound | Inhibition of DNA-binding (relative to activated control) ([13]; 1.0 μM) | Count per mm^2 NF-κB bands ([13]; 1.0 μM) | Inhibition of DNA-binding (relative to activated control) ([13]; 5.0 μM) | Count per mm^2 NF-κB bands ([13]; 5.0 μM) | other results
1 | 3500 nM | 3550 nM | 8160 nM | 8200 nM | 1730 nM | 400 nM | 150 nM |  |  | NC1=N/C(=C2/CCNC(=O)c3[nH]c4ccccc4c32)C(=O)N1 [Compound 2, 5-(2-amino-5-oxo-1,5-dihydro-imidazol-4-ylidene)-3,4,5,10-tetrahydro-2H-azepino[3,4-b]indol-1-one] |  |  |  |  | IC50 [6]: 1350 nM; IC50 [7]: > 10000 nM; IC50 [8]: 89 nM; IC50 [9]: 2540 nM; IC50 [10]: 3380 nM; IC50 [11]: 237 nM; IC50 [12]: 8 nM
2 |  |  |  |  | 14300 nM | > 10000 nM | > 10000 nM | > 10000 nM | > 10000 nM | Cn1c2c(c3ccccc31)C(=C1N=C(N)NC1=O)CCNC2=O [Compound 3, 5-(2-amino-5-oxo-1,5-dihydro-imidazol-4-ylidene)-10-methyl-3,4,5,10-tetrahydro-2H-azepino[3,4-b]indol-1-one] | 0% | 118.82 Count per mm^2 | 0% | 121.76 Count per mm^2 | Inhibition of IL-2 production (in words) ([1]; Jurkat cells, measured up to 10 μM): no significant inhibition of IL-2 production; Inhibition of NF-κB-DNA binding (in words) ([13]; measured up to concentrations of 5 μM): did not appear to substantially inhibit DNA binding; Inhibition of TNF-α production (in words) ([2]; tested up to 10 μM): did not have any significant activity; melting point: > 260 °C
3 | 2400 nM | 2410 nM | 1360 nM | 1400 nM | 1610 nM |  |  |  |  | NC1=NC(=O)/C(=C2\CCNC(=O)c3[nH]c(Br)cc32)N1 [Hymenialdisine 1, hymenialdisine, reference compound] |  | 102.14 Count per mm^2 |  | 57.06 Count per mm^2 | 
4 |  |  |  |  |  |  |  | 5120 nM | 6110 nM | S=C(S)N1CCCC1 [PDTC, pyrrolidinedithiocarbamate, reference compound] | 30% | 73.48 Count per mm^2 | 51% | 51.68 Count per mm^2 | 
5 |  |  |  |  |  |  |  |  |  | NC1=N/C(=C2/CCNC(=O)c3[nH]ccc32)C(=O)N1 [debromohymenialdisine] |  |  |  |  | Inhibition of checkpoint kinase CHK1 (in words) [14]: low micromolar concentrations
